Reference: patent publication US20030129168A1, “Expression of proteins for treating asthma via ligand mediated activation of their encoding genes” (ARIAD Gene Therapeutics, Inc., priority 1996, published 2003)

How the values were obtained:
[1] = test system: chimeric FKBP12/CD3 (1FK3) receptor; test: FK1012A activation of chimeric FKBP12/CD3 (1FK3) receptor, NFAT-SX SEAP reporter; type: cell-based; details: addition of 2 ng/ml FK506
Description: 5 μg of the eukaryotic expression vector, pBJ5, (based on pCDL-SR with a polylinker inserted between the 16S splice site and the poly A site), containing the chimeric receptor (1FK3), was co-transfected with 4 μg of the NFAT-inducible secreted alkaline phosphatase reporter plasmid, NFAT-SX. As a control, 5 μg of pBJ5 was used, instead of 1FK3/pBJ5, in a parallel transfection. After 24 hours, aliquots of each transfection containing approximately 10^5 cells were incubated with log dilutions of the drug FK1012A, as indicated. As a positive control and to control for transfection efficiency, ionomycin (1 μM) and PMA (25 ng/ml) were added to aliquots from each transfection. After an additional 14 hour incubation, the supernatants were assayed for alkaline phosphatase activity and these activities were expressed relative to that of the positive control samples. […] Each data point obtained was the average of two samples and the experiment was performed several times with similar results.

[2] = test system: myristoylated chimeric CD3/FKBP12 (MZF3E) receptor; test: FK1012 activation of myristoylated chimeric CD3/FKBP12 (MZF3E) receptor, NFAT SEAP reporter in Jurkat T cells; type: cell-based, human; details: addition of 1 ng/ml FK506
Text: In an illustrative case, this was accomplished by creating an intracellular receptor comprised of a small fragment of Src sufficient for posttranslational myristoylation (M), the cytoplasmic tail of zeta (Z; a component of the […] was also used), three consecutive FKBP12s (F3) and a flu epitope tag (E). […] The promoter of the SEAP reporter gene was constructed to be transcriptionally activated by nuclear factor of activated T cells (NFAT), which is assembled in the nucleus following TCR-signaling.
Specifically, 5 μg of the eukaryotic expression vector, pBJ5, containing a myristoylated chimeric receptor was co-transfected with 4 μg NFAT-SX. MZE, MZF1E, MZF2E and MZF3E contain 0, 1, 2, or 3 copies of FKBP12, respectively, downstream of a myristoylated CD3 cytoplasmic domain (see FIG. 2 of PCT/US94/01617). As a control, 5 μg of pBJ5 was used in a parallel transfection. After 24 hours, aliquots of each transfection containing approximately 10^5 cells were incubated with log dilutions of the drug, FK1012B, as indicated. As a positive control and to control for transfection efficiency, ionomycin (1 μm) and PMA (25 ng/ml) were added to aliquots from each transfection. After an additional 12 hour incubation, the supernatants were assayed for alkaline phosphatase activity and these activities were expressed relative to that of the positive control samples. […] Compare FIGS. 7 and 8 of PCT/US94/01617.

[3] = test system: NFAT; test: SEAP reporter activation by cross-linking chimeric receptor TAC/TAC/Z (TTZ) in TAg Jurkat cells; type: cell-based, human; details: addition of 1 ng/ml FK506; TTZ-transfected TAg Jurkat cells on bound anti-TAC mAb
Text: The plasmid pSXNeo/IL2 (IL2-SX) (FIG. 1 of PCT/US94/01617), which contains the placental secreted alkaline phosphatase gene under the control of human IL-2 promoter (−325 to +47; MCB(86) 6, 3042), and related plasmid variants (i.e. NFAT-SX, NFB-SX, OAP/Octl-SX, and AP-1-SX) in which the reporter gene is under the transcriptional control of the minimal IL-2 promoter (−325 to −294 and −72 to +47) combined with synthetic oligomers containing various promoter elements (i.e. NFAT, NKB, OAP/Oct-1, and AP1, respectively), were made by three piece ligations of 1) pPL/SEAP (Berger, et al., Gene (1988) 66,1) cut with Sspl and HindIII; 2) pSV2/Neo (Southern and Berg, J. Mol. Appl. Genet. (1982) 1, 332) cut with NdeI, blunted with Kilenow, then cut with PvuI; and 3) various promoter-containing plasmids (i.e. NFAT-CD8, B-CD8, cxl2lacZ-Oct-1, AP1-LUCIF3H, or cx151L2) (described below) cut with PvuI and HindIII. NFAT-CD8 contains 3 copies of the NFAT-binding site (−286 to −257; Genes and Dev. (1990) 4, 1823) and cx121acZ-Oct contains 4 copies of the OAP/Oct-1/(ARRE-1) binding site (MCB, (1988) 8, 1715) from the human IL-2 enhancer; B-CD8 contains 3 copies of the NFB binding site from the murine light chain (EMBO (1990) 9,4425) and AP1-LUCIF3H contains 5 copies of the AP-1 site (5′-[…]-3′) from the metallothionen promoter. […]

## C=CC[C@@H]1/C=C(\C)C[C@H](C)C[C@H](OC)[C@H]2O[C@@](O)(C(=O)C(=O)N3CCCC[C@H]3C(=O)O[C@H](/C(C)=C/[C@@H]3CC[C@@H](O)[C@H](OC)C3)[C@H](C)[C@@H](O)CC1=O)[C@H](C)C[C@@H]2OC [FK506]
[1]
  alkaline phosphatase activity (FK1012A stimulations): dropped all stimulations to background levels
[2]
  alkaline phosphatase activity (FK1012B stimulations): dropped all stimulations to near background levels
[3]
  alkaline phosphatase activity due to NFAT: dropped all activity due to NFAT to background levels
